Legend:
[1] = system: Plasmodium yoelii; experiment: Malaria in mice; assay type: in vivo, C57BL/6 mice; details: 40 mg/kg i.p. Days 1-5
Experimental: Groups of male C57BL/6 mice were inoculated i.v. on Day 0 with an infectious dose of Plasmodium yoelii. Groups of mice were administered, by i.p. injection, one of three concentrations of the test material (0.1, 1.0 or 10.0 ng/mouse/day) or vehicle on Day 1 and again on Days 2 through 5, for a total of five doses. An additional assay control group of mice was administered approximately 40 mg of Chloroquine per kg of body weight by i.p. injection on Days 1 through 5 as well.

[2] = system: DC-activity induced by ARP preparations; experiment: Effect of divalent cations on DC-activity of ARP; assay type: cell-based, mouse; details: mM-μM concentration range
Text: Some differences exist in the interaction of copper and zinc with ARP and must be explored further. […] The former was inhibited by both-calcium and magnesium ions, while the latter—only by magnesium ions.

[3] = system: Candida albicans; experiment: Candida albicans infection in mice; assay type: in vivo, CDI mice
Experimental: Groups of female CDI mice were inoculated intravenously (i.v.) on Day 0 with an infectious dose of Candida albicans calculated to provide 60-100% mortality in the control group. Groups of mice were administered, by i.p. injection, one of three concentrations of the test material (0.1, 1.0 or 10.0 ng/mouse/day) or vehicle on Day 0, approximately 1.5 hours following infectious challenge, and again on Days 1 through 4, for a total of five doses. An additional assay control group of mice was administered approximately 80 mg of fluconazole per kg of body weight by oral gavage approximately 1, 24, 48 and 72 hours following infectious challenge.

[4] = system: S-180 tumor; experiment: Murine S-180 tumor model; assay type: in vivo, BALB/c mice; details: GM-CSF alone, 20 ng/mouse/day
Experimental: In a preferred embodiment, The S-180 cell line (ATCC CCL 8, batch F4805) is chosen as the tumor model because the same line is capable of growing both in animals and in culture (in both serum-containing and serum-free conditions). Tumors are established in mice (BALB/c) by injection of cell suspensions obtained from tissue culture. Approximately […] to 3×10^6 cells are injected intra-peritoneally per mouse. The tumor developed as multiple solid nodules at multiple sites within the peritoneal cavity and cause death in most of the animals within 10 to 15 days. In addition to monitoring animal survival, their condition is qualitatively assessed as tumor growth progressed and used to generate a tumor index as described in the following paragraph.
To establish an estimate of drug activity in tumor model experiments, an index can be developed that combines observational examination of the animals as well as their survival status. […]
The S-180 cell line (ATCC CCL 8, batch F4805) was chosen as the tumor model because the same line was capable of growing both in animals and in culture (in both serum-containing and serum-free conditions). […] In addition to monitoring animal survival, their condition was qualitatively assessed as tumor growth progressed and used to generate a tumor index. […]

[5] = system: Mouse sarcoma 180 cells; experiment: NK cell-mediated cytotoxicity (NK-CMC) assay, LGL/S180 co-culture; assay type: cell-based; details: wide range of concentrations, presence and absence of IL-2 (125 U/ml)
Experimental: In one embodiment, a NK cell assay is used to assess ARP-induced cytotoxic activity of NK-like cells (see section 12.2). Briefly, by way of example but not limitation, a NK cell assay can be carried out as follows: large granular lymphocytes (LGLs) are co-cultured with tumor cells at various ratios (effector to target ratio) for four days at 37° C., 5% CO2. […] The culture is terminated at the end of day 4 and vitally stained using a MTT cell viability quantification assay (see Mossman, T. J. Immunol. Methods 65: 55 (1983); and Sigma Chemical MTT (M5655) product application note). Culture media is aspirated and the remaining cells are washed and replaced with DMEM/F12 plus FCS, containing MTT. The cells are further incubated for 4-5 hours at 37° C. Absorbance is measured with the aid of a plate reader. Decreased absorbance indicated a decrease in the number of viable cells per well (i.e., cytotoxicity). Absorbance is measured again after the MTT is solubilized by replacement of the medium with 2-propanol containing HCl, which gives a uniform color throughout the well. NK-inducing activity is calculated relative to negative (PBS/BSA) and positive (internal standard) controls.
Spleens (10-15 per experiment) were aseptically removed from male Balb/C mice 6-10 weeks of age. Splenocytes were “squeezed” out of spleens using 2 sterile glass microscope slides. Cells were collected in approximately 10 ml of DMEM/F 12 containing 10% fetal calf serum (FCS) and gentamicin (50 μg/ml). Single cell suspensions were generated by passing collected cells through a 70 μm nylon mesh screen. After washing the cell pellet once with PBS (centrifuged at 675×g for 5 min), red blood cells were lysed by brief hypotonic shock (i.e. exposure to sterile distilled, deionized water, followed immediately with appropriate volumes of 10×PBS to return to isotonicity). Remaining cells were centrifuged and resuspended in DMEM/F12+10% FCS and transferred to 75 cm^2 flasks each containing 25 mls DMEM/F12+10% FCS (cells from 5 spleens per flask). The cells were incubated for 60 min. at 37° C. to selectively remove readily adherent cells (mainly fibroblasts and macrophages). After the incubation, the flasks were gently shaken and the non-adherent cells were removed, pelleted by centrifugation, and resuspended in DMEM/F12 (no supplements) (1.0 mL/10^8 cells). A 1.0 mL volume of these cell suspensions were carefully layered onto a 70%/60%/40% (2 mL/4 mL/4 mL) Percoll™ gradients in 15 ml centrifuge tubes and centrifuged for 30 min at 675×G. The cells which sediment at the 40/60 interface represent primarily large granular lymphocytes (LGLs), enriched with NK cells. These cells were carefully removed with a pasteur pipet, centrifuged, washed once with PBS and resuspended in approximately 5 mL DMEM/F12 supplemented with gentamicin (50 μg/mL) and 10% fetal calf serum. Cell counts and appropriate dilutions of LGL cells were made with these cells, as described below. For convenience this LGL cell preparation is interchangeably referred to as NK cells.
Mouse sarcoma 180 cells were seeded into 96 well plates at a density of 5×10^3 cells per well in 100 μl DMEM/F12, supplemented with 10% FCS and gentamicin (50 μg/mL). […] NK cells were added in 100 μL of supplemented DMEM/F12 at designated densities: 0 NK cells/well; 5×10^4 NK cells/well (1:10 target/effector ratio); 1.25×10^5 NK cells/well (1:25 target/effector ratio); 2.5×10^5 NK cells/well (1:50 target/effector ratio); and, 5×10^5 NK cells/well (1:100 target/effector ratio). (Note: routinely, only the 1:50 and 1:100 ratios were used for screening purposes. IL2 was added as a media supplement with final concentration of 125 U/mL.). Co-cultures were incubated for 4 days at 37° C., 5% CO2, and terminated and vitally stained using a MTT cell viability quantification assay (see Mossman, T. J. Immunol. Methods 65:55 (1983); and Sigma Chemical MTT (M5655) product application note). […]

[6] = system: freshly isolated dendritic cells (CD11c+ splenocytes); experiment: Dendritic cell (DC) assay: IL12 release from freshly isolated dendritic cells; assay type: cell-based, BALB/c mice; details: tested for synergism and inhibition
Text: In a preferred embodiment, dendritic cell (DC) assay is used to follow interleukin-12 (IL-12) release from freshly isolated dendritic cells as an index of DC activation (see section 12.3). […] Briefly, by way of example but not limitation, a DC assay can be carried out as follows: freshly isolated dendritic cells (CD11c^+ splenocytes, e.g., isolated from the spleens of BALB/c mice within ten hours of assaying the activity) are suspended at a density of 0.5×10^6 cells per mL in cytokine supplemented culture media (GM-CSF, 1.0 ng/ml; IL-4, 1.0 ng/ml; IFNg, 3.0 ng/ml; anti mouse CD40, 0.5 mg/ml). […] Mouse IL-12 release from the dendritic cells (CD11c^+ splenocytes) is then measured using ELISA.
To follow the activity in semi-purified preparations of BEX, an assay which follows IL12 release from freshly isolated dendritic cells (DCs) as an index of DC activation was developed. This activity is highly correlated with both NK-CMC in vitro and anti-tumor activity in vivo.
DCs were isolated from the spleens of male BALB/c mice 8-12 weeks of age (Harlan Bioproducts for Science, Indianapolis, Ind.), using the magnetic assisted cell separation (MACS) system purchased from Miltenyi Biotech. In summary: Spleens were aseptically removed from mice and placed into a petri dish containing 5 mL holding media (DMEM/F12 supplemented with 10% FCS and antibiotics). Each spleen was then injected with ˜0.5 mls collagenase D solution (1 mg/mL in 10 mM Hepes-NaOH, pH 7.4, 150 mM NaCl, 5 mM MgCl2, 1.8 mM CaCl2), placed into 5-10 mL collagenase D, cut into 5-6 pieces and incubated at 37° C. for 45-60 min. Collagenase-digested spleens were then processed with glass slides and passed through a 70 μm nylon mesh cell strainer. After the strainer was flushed with 40 mL culture media, cells were centrifuged (8 min @ 200×G), suspended in 1 mL PBS and subjected to red blood cell lysis by incubating the cell suspension for 5 min at room temperature in 10 mL lysis buffer (155 mM NH4Cl, 10 mM KHCO3, 0.1 mM EDTA), followed by dilution in PBS to 50 mL and centrifugation (8 min @ 200×g). The splenocytes were then suspended in 10 mL MACS buffer (PBS pH 7.2, supplemented with 2 mM EDTA and 0.5% BSA), passed through a 40 μm nylon mesh cell strainer which was flushed with 40 mL MACS buffer. A preliminary cell count was taken at this time, prior to centrifugation (8 min @ 200×G). The splenocytes were suspended at a density of 10^8 cells per 400 μL MACS buffer. Paramagnetic MicroBeads coated with anti-CD11c^+ antibody were mixed with the splenocyte suspension (100 μL per 10^8 cells), incubated at +4° C. for 15 min, washed, suspended in 1.0 mL MACS buffer and passed through a MS+ separation column placed within a strong magnetic field. CD11c^+ cells were retained in the column whereas CD11c^− cells were washed off the column as the flow-through cell fraction. CD11c^+ cells were then collected by removing the column out of the magnetic field and flushing the column twice with 1 mL of MACS buffer. CD11c^+ cells were washed once with culture media and suspended at a density of 0.5×10^6 cells per mL in cytokine supplemented culture media {DMEM/F12 supplemented with 10% FCS and gentamicin containing mouse GM-CSF (1 ng/mL), mouse IL-4 (1 ng/mL), mouse IFNγ (3 ng/mL) and anti mouse CD40 (0.5 mg/mL)}.
Mouse IL12 release from CD11c^+ splenocytes was measured using ELISA. Briefly, CD11c+ cell culture supernatants were sampled following an overnight incubation (usually 15-18 hrs). Media samples ([…]) were added to ELISA plates coated with anti mouse IL12 (p70) capture antibody (R&D #MAB419; 250 ng in 100 μL per well) and incubated either at 37° C. or room temperature for 2 hrs. The ELISA plates were washed extensively with wash buffer after which 100 μL per well of detection antibody/detection reagent (biotinylated anti-mouse IL12; R&D #BAF419 at 50 ng/mL and streptavidin-HRP) was added. […]

CCN(CC)CCCC(C)Nc1ccnc2cc(Cl)ccc12 (centres unmarked) [Chloroquine]
Parasitized Erytthrocytes % [1]: 12%
Survival (Days) ± SD [1]: 37.0 ± 0.7 days

[Cl-].[Cl-].[Mg+2] [MgCl2]
inhibition of DC-activity of crude ARP preparations [2]: did not

[Cl-].[Cl-].[Zn+2] [ZnCl2]
inhibition of DC-activity of crude ARP preparations [2]: showed inhibition of activity

[Ca+2].[Cl-].[Cl-] [CaCl2]
inhibition of DC-activity of crude ARP preparations [2]: did not

OC(Cn1cncn1)(Cn1cncn1)c1ccc(F)cc1F [Fluconazole, fluconazole]
Percent Mortality ([3]; ~80 mg/kg oral gavage): 0%
Mean Survival Time ([3]; ~80 mg/kg oral gavage 1, 24, 48 and 72 hours after challenge, all animals): 14.0 days

GM-CSF: granulocyte macrophage-colony stimulating factor
survivorship versus sham injections [4]: followed similar survivorship curves

[Cl][Cu][Cl] [CuCl2]
inhibition of DC-activity of crude ARP preparations [2]: showed inhibition of activity

B1: IL-10: interleukin (protein, UniProt P18893 19-178, looked up)
Interleukin-10: SRGQYSREDNNCTHFPVGQSHMLLELRTAFSQVKTFFQTKDQLDNILLTDSLMQDFKGYLGCQALSEMIQFYLVEVMPQAEKHGPEIKEHLNSLGEKLKTLRMRLRRCHRFLPCENKSKAVEQVKSDFNKLQDQGVYKAMNEFDIFINCIEAYMMIKMKS
NK-CMC Activity [5]: −
DC mIL12 Release [6]: inhibitory

Source: patent US8257714B2, “Compositions and methods for immunotherapy of cancer and infectious diseases” (priority 2003, dated 2012)
